Experimental data as given in patent US9133195B2, “Quaternary ammonium salt compounds of spirocyclopiperazines, preparation methods and uses thereof” (Peking University, priority 2006, dated 2015).
Structures can show the parent of a compound that is named as a salt.

Experiments:
Kunming mice = experiment: Acetic acid-induced writhing test; type: in vivo; conditions: 31.0 umol/kg s.c., acetic acid i.p. after 30 min, writhing counted for 10 min; for inhibition in vivo at 31 µmol/kg: Mus musculus, sc
Experimental: Kunming mice, male and female in half, were randomly divided into groups with 8 mice in each group. The following groups were established: the normal saline (NS) control group, in which normal saline was administered by subcutaneous injection (s.c.); the test groups, in which 31.0 umol/kg quaternary ammonium salts compounds of piperazines of the present invention was administered by s.c. All drugs were dissolved in normal saline before use. The drug was injected at the dose of 0.1 ml/10 g. After 30 min, 0.2 ml of 0.6% acetic acid was injected intraperitoneally for each mouse. After 2˜3 min, the writhing reactions such as abdominal constriction, stretch of body and hind limbs, and hip raise occurred. Five minutes after acetic acid injection, the numbers of writhing was counted for 10 min. The percentage of inhibition was determined by using the following formula (1): Inhibition %=[(The numbers of writhing of control group−the numbers of writhing of drag injection group)/the numbers of writhing of control group]×100% (1) 2 Experimental Results
This experiment was carried out according to that of Example 36.

Body temperature in mice = type: in vivo; conditions: 2.0 mg/kg
Experimental: (§1) All the following tests were carried out by using compound LXM-10 according to the routine methods.

mice [1] = experiment: Spontaneous motion in mice; type: in vivo; conditions: 2.0 mg/kg
Experimental: as §1

mice [2] = experiment: Function of motion coordination (rota-rod); type: in vivo; conditions: 2.0 mg/kg
Experimental: as §1
The effect of muscle-relaxed effect on the analgesic effect of LXM-10 was also excluded.

Molecule: c1ccc(N2CC[N+]3(CCCC3)CC2)cc1 [LXM-18, 8-phenyl-5,8-diazaspiro[4.5]decane bromide]
- inhibition in vivo at 31 µmol/kg (Kunming mice): 20%

Molecule: CC1CC[N+]2(CC1)CCN(CCc1ccccc1)CC2 [LXM-6, 3-methyl-9-(β-phenylethyl)-6,9-diazaspiro[5.5]undecane chloride]
- inhibition in vivo at 31 µmol/kg (Kunming mice): 30%

Molecule: C=CCN1CC[N+]2(CC1)CC(C)OC(C)C2 (stereo not shown) [LXM-28, 2,4-dimethyl-9-allyl-3-oxo-6,9-diazaspiro[5.5]undecane chloride]
- inhibition in vivo at 31 µmol/kg (Kunming mice): 49%

Molecule: Oc1cccc(N2CC[N+]3(CCCC3)CC2)c1 [LXM-20, 8-(m-hydroxyphenyl)-5,8-diazaspiro[4.5]decane bromide]
- inhibition in vivo at 31 µmol/kg (Kunming mice): 53%

Molecule: CC1C[N+]2(CCN(CCc3cccc([N+](=O)[O-])c3)CC2)CC(C)S1 (stereo not drawn) [LXM-9, 2,4-dimethyl-9-β-(m-nitrophenyl)ethyl-3-thio-6,9-diazaspiro[5.5]undecane chloride]
- inhibition in vivo at 31 µmol/kg (Kunming mice): 62%

Molecule: c1cncc(N2CC[N+]3(CCCC3)CC2)c1 [LXM-25, 8-(3-pyridyl)-5,8-diazaspiro[4.5]decane bromide]
- inhibition in vivo at 31 µmol/kg (Kunming mice): 37%

Molecule: CC1C[N+]2(CCN(CCc3ccccn3)CC2)CC(C)O1 (stereo not shown) [LXM-31]
- inhibition in vivo at 31 µmol/kg (Kunming mice): 58%

Molecule: CC1CC[N+]2(CC1)CCN(CCc1ccccc1)CC2 (as salt: chloride) [LXM-6, 3-methyl-9-(β-phenylethyl)-6,9-diazaspiro[5.5]undecane chloride]
- melting point: 230 °C (dec.)

Molecule: CC1C[N+]2(CCN(CCc3cccc(F)c3)CC2)CC(C)O1 (stereo not drawn) [LXM-8, 2,4-dimethyl-9-β-(m-fluorophenyl)ethyl-3-oxo-6,9-diazaspiro[5.5]undecane chloride]
- inhibition in vivo at 31 µmol/kg (Kunming mice): 55%

Molecule: CCOC(=O)c1cccc(N2CC[N+]3(CCCC3)CC2)c1 [LXM-23, 8-(m-ethoxycarbonylphenyl)-5,8-diazaspiro[4.5]decane bromide]
- inhibition in vivo at 31 µmol/kg (Kunming mice): 39%

Molecule: CC1C[N+]2(CCN(CCc3ccccn3)CC2)CC(C)O1 (stereo not shown) (as salt: chloride) [LXM-31]
- melting point: 247 °C

Molecule: CN1C(=O)CN=C(c2ccccc2)c2cc(Cl)ccc21 [Diazepam, reference compound]
- Rectal temperature after treatment (Body temperature in mice; 0.5 h): 35.1 ± 0.26 °C
- Rectal temperature after treatment (Body temperature in mice; 2.0 h): 35.9 ± 0.35 °C
- Rectal temperature after treatment (Body temperature in mice; 3.5 h): 36.5 ± 0.31 °C
- Rectal temperature (Body temperature in mice; before treatment): 37.6 ± 0.17 °C
- Numbers of movement after treatment (mice [1]; 0.5 h): 5.37 ± 1.64
- Numbers of movement after treatment (mice [1]; 2.0 h): 10.8 ± 3.10
- Numbers of movement after treatment (mice [1]; 3.5 h): 18.2 ± 3.61
- Numbers of movement (mice [1]; before treatment): 51.5 ± 5.15
- Time of falling down from rota-rod after treatment (mice [2]; 0.5 h): 48.8 ± 14.0 s
- Time of falling down from rota-rod after treatment (mice [2]; 2.0 h): 73.3 ± 14.1 s
- Time of falling down from rota-rod after treatment (mice [2]; 3.5 h): 111.7 ± 6.70 s
- Time of falling down from rota-rod (mice [2]; before treatment): 102.5 ± 6.48 s

Molecule: CC1C[N+]2(CCN(C/C=C/c3ccccc3)CC2)CC(C)O1 (stereo not shown) [LXM-30, 2,4-dimethyl-9-cinnamenyl-3-oxo-6,9-diazaspiro[5.5] undecane chloride]
- inhibition in vivo at 31 µmol/kg (Kunming mice): 43%

Molecule: O=[N+]([O-])c1cccc(N2CC[N+]3(CCCC3)CC2)c1 [LXM-16, 8-(m-nitrophenyl)-5,8-diazaspiro[4.5]decane bromide]
- inhibition in vivo at 31 µmol/kg (Kunming mice): 61%

Molecule: 8-(4-chloro-3-pyridyl)-5,8-diazaspiro[4.5]decane bromide [LXM-24]
- Inhibition(%) of writhing (Kunming mice): 46%

Molecule: COc1ccc(N2CC[N+]3(CCCC3)CC2)cc1 [LXM-19, 8-(p-methoxyphenyl)-5,8-diazaspiro[4.5]decane bromide]
- inhibition in vivo at 31 µmol/kg (Kunming mice): 56%

Molecule: Clc1ccc(N2CC[N+]3(CCCC3)CC2)nn1 [LXM-11, 8-(4-chloro-2,3-pyridazinyl)-5,8-diazaspiro[4.5]decane chloride]
- inhibition in vivo at 31 µmol/kg (Kunming mice): 44%

Molecule: c1ccc(N2CC[N+]3(CCCC3)CC2)cc1 (as salt: bromide) [LXM-18, 8-phenyl-5,8-diazaspiro[4.5]decane bromide]
- melting point: 208 to 209 °C

Molecule: Fc1cccc(N2CC[N+]3(CCCC3)CC2)c1 [LXM-21, 8-(m-fluorophenyl)-5,8-diazaspiro[4.5]decane bromide]
- inhibition in vivo at 31 µmol/kg (Kunming mice): 47%

Molecule: COc1ccc(N2CC[N+]3(CCCC3)CC2)cc1 (as salt: bromide) [LXM-19, 8-(p-methoxyphenyl)-5,8-diazaspiro[4.5]decane bromide]
- melting point: 201 to 203 °C

Molecule: CC1C[N+]2(CCN(C/C=C/c3ccccc3)CC2)CC(C)O1 (stereo not shown) (as salt: chloride) [LXM-30, 2,4-dimethyl-9-cinnamenyl-3-oxo-6,9-diazaspiro[5.5] undecane chloride]
- melting point: 266 to 268 °C

Molecule: N#Cc1cccc(N2CC[N+]3(CCCC3)CC2)c1 [LXM-22, 8-(m-cyanophenyl)-5,8-diazaspiro[4.5]decane bromide]
- inhibition in vivo at 31 µmol/kg (Kunming mice): 56%

Molecule: C=CCN1CC[N+]2(CC1)CC(C)OC(C)C2 (stereo not shown) (as salt: chloride) [LXM-28, 2,4-dimethyl-9-allyl-3-oxo-6,9-diazaspiro[5.5]undecane chloride]
- melting point: 236 °C (dec.)
